Measured values published in US20260325533A1, “CDK INHIBITOR COMPOUNDS” (ALEKSIA THERAPEUTICS, INC., priority 2023, published 2026).
Read-outs that look alike come from different tables or passages of the source. Each block holds one molecule with its values, some of them ahead of it.

How the values were obtained:
Type in all cases: biochemical
CDK2/CCNE1 = CDK2/CCNE1 (Homo sapiens, UniProt P24941); assay: CDK2 homogeneous time-resolved fluorescence (HTRF) kinase assay; settings: CDK2/CCNE
Method in brief: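 TR-FRET read-out (665 nm, or 665/615 ratio) of Eu-antibody detection of phospho-4E-BP1 (Thr37/46) ULight peptide. Enzyme 3 nM, ATP 1 mM, peptide 50 nM, 1% DMSO; 60 min reaction at 23 °C after 20 min compound preincubation. IC50 from 11-point half-log titrations, top typically 10 μM.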

CDK1/CCNB1 = CDK1/CCNB1 (Homo sapiens, UniProt P06493); assay: CDK1 homogeneous time-resolved fluorescence (HTRF) kinase assay; settings: CDK1/CCNB
Chain of CDK1/CCNB1 (P06493 whole entry): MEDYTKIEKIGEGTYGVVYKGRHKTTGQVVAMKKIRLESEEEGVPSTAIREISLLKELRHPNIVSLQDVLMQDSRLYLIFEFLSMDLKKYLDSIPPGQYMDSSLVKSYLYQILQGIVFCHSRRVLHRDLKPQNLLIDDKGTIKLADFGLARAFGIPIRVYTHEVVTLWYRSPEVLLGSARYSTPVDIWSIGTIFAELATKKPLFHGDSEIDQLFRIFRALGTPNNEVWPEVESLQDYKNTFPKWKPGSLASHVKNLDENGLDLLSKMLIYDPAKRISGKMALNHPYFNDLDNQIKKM
Chain of CDK1/CCNB1 (P14635 whole entry partner): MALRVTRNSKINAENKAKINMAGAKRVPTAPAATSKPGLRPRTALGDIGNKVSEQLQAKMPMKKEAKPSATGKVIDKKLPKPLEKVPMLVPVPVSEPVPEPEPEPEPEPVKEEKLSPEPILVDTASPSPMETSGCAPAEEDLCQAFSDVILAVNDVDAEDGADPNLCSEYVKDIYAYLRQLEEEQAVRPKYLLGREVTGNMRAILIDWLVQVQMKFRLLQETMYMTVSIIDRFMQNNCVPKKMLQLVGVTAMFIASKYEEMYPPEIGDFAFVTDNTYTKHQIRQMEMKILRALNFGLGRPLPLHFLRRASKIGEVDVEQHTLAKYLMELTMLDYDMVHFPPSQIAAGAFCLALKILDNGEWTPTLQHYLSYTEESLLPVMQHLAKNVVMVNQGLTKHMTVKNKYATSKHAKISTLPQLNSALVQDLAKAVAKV
Method in brief: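 Read-out: TR-FRET (Eu anti-phospho-4E-BP1 Thr37/46 antibody, 2 nM; 665 nm or 665/615 ratio) after 60 min phosphorylation of 50 nM ULight-peptide by 0.5 nM CDK1/CCNB1 at 1 mM ATP, 23 °C. Compound preincubated 20 min with enzyme; 1% DMSO.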

CDK4/CCND3 = CDK4/CCND3 (Homo sapiens, UniProt P11802); assay: CDK4 homogeneous time-resolved fluorescence (HTRF) kinase assay; settings: CDK4/CCND
Chain of CDK4/CCND3 (P11802 whole entry): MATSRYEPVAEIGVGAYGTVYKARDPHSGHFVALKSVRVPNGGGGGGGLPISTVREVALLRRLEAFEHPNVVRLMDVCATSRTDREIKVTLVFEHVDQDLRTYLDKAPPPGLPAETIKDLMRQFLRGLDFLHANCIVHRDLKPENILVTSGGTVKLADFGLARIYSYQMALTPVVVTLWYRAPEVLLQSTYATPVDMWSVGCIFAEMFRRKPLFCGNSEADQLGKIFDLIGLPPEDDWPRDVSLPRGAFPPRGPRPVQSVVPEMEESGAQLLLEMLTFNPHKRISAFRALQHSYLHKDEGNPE
Chain of CDK4/CCND3 (P30281 whole entry partner): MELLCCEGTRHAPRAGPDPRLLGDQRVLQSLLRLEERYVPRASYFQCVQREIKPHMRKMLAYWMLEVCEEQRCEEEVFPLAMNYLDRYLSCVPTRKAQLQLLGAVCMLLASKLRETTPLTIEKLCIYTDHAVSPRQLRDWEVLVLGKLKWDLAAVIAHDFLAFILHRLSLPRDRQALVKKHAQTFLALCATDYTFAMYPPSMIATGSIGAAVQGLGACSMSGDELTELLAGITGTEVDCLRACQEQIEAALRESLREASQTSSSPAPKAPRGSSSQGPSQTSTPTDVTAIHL
Method in brief: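 IC50s derive from Lance 665 nm or 665/615 nm signals in 11-point, half-log dose series (top 10 μM, 1% DMSO). The enzyme, 1.5 nM CDK4/CCND3, phosphorylates 50 nM ULight-4E-BP1 peptide with 1 mM ATP over 60 min at 23 °C.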

CDK6/CCND1 = CDK6/CCND1 (Homo sapiens, UniProt Q00534); assay: CDK6 homogeneous time-resolved fluorescence (HTRF) kinase assay; settings: CDK6/CCND
Chain of CDK6/CCND1 (Q00534 whole entry): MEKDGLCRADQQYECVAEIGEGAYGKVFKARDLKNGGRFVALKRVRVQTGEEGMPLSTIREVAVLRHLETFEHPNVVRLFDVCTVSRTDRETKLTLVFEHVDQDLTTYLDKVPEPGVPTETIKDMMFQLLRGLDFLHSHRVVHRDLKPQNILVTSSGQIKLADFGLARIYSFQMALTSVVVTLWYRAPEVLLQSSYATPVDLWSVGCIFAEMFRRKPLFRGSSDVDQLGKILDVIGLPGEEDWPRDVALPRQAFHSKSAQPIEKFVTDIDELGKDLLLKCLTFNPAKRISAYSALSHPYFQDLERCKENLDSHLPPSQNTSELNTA
Chain of CDK6/CCND1 (P24385 whole entry partner): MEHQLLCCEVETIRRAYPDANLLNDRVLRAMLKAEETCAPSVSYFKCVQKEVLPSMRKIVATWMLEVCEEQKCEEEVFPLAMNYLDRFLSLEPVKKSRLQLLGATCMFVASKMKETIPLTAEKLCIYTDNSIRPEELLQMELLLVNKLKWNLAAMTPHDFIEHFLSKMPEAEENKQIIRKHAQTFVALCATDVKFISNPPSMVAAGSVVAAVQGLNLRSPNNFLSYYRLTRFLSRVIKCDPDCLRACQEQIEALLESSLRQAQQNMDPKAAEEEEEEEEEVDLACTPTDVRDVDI
Method in brief: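 Assay conditions: HEPES buffer containing 10 mM MgCl2, 1 mM EGTA, 2 mM DTT, 0.01% Tween 20; 1 nM CDK6/CCND1, 50 nM peptide substrate, 1 mM ATP. Detection after 60 min reaction used 2 nM europium antibody with 340 nm excitation. Potency fitted from half-log series, 11 points.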

[1] = x = IC50 <25 nM, read-out: CDK2/CCNE IC50 (<25 nM)
[2] = x = IC50 >250 nM, read-out: CDK1/CCNB IC50 (>250 nM column)
[3] = x = IC50 >250 nM, read-out: CDK4/CCND IC50 (>250 nM column)
[4] = x = IC50 >250 nM, read-out: CDK6/CCND IC50 (>250 nM column)
[5] = x = IC50 25-250 nM, read-out: CDK2/CCNE IC50 (25-250 nM)
[6] = <25 nM, read-out: CDK2/CCNE IC50, <25 nM
[7] = >250 nM, read-out: CDK1/CCNB IC50 >250 nM
[8] = >250 nM, read-out: CDK4/CCND IC50, >250 nM
[9] = >250 nM, 1 mM ATP, read-out: CDK6/CCND IC50, >250 nM
[10] = x = IC50 25-250 nM, read-out: CDK1/CCNB IC50 (25-250 nM)
[11] = >250 nM marked x, read-out: CDK1/CCNB IC50 >250 nM
[12] = >250 nM marked x, read-out: CDK4/CCND IC50 >250 nM
[13] = >250 nM marked x, read-out: CDK6/CCND IC50 >250 nM
[14] = 25-250 nM, read-out: CDK2/CCNE IC50, 25-250 nM

- IC50 (CDK2/CCNE1; [1]): < 25 nM
- IC50 (CDK1/CCNB1; [2]): > 250 nM
- IC50 (CDK4/CCND3; [3]): > 250 nM
- IC50 (CDK6/CCND1; [4]): > 250 nM
SMILES: CCS(=N)(=O)c1ccc(Nc2cc3c(C#Cc4ccc(=O)[nH]n4)nccc3cn2)cc1 (single isomer, unassigned) [Example 403, 6-((7-((4-(ethylsulfonimidoyl)phenyl)amino)-2,6-naphthyridin-1-yl)ethynyl)pyridazin-3(2H)-one]

- IC50 (CDK2/CCNE1; [5]): 25 to 250 nM
- IC50 (CDK1/CCNB1; [2]): > 250 nM
- IC50 (CDK4/CCND3; [3]): > 250 nM
- IC50 (CDK6/CCND1; [4]): > 250 nM
SMILES: Cn1cc(C#Cc2nccc3cnc(Nc4ccc(S(C)(=O)=O)cc4)cc23)ccc1=O [Example 663, 1-Methyl-5-((7-((4-(methylsulfonyl)phenyl)amino)-2,6-naphthyridin-1-yl)ethynyl)pyridin-2(1H)-one]

- IC50 (CDK2/CCNE1; [5]): 25 to 250 nM
- IC50 (CDK1/CCNB1; [2]): > 250 nM
- IC50 (CDK4/CCND3; [3]): > 250 nM
- IC50 (CDK6/CCND1; [4]): > 250 nM
SMILES: N#Cc1ccc(C#Cc2nccc3cnc(Nc4ccc(S(=O)(=O)CCN5CCOCC5)cc4)cc23)cc1 [Example 661, 4-((7-((4-((2-morpholinoethyl)sulfonyl)phenyl)amino)-2,6-naphthyridin-1-yl)ethynyl)benzonitrile]

- IC50 (CDK2/CCNE1; [1]): < 25 nM
- IC50 (CDK1/CCNB1; [10]): 25 to 250 nM
- IC50 (CDK4/CCND3; x = IC50 25-250 nM, read-out: CDK4/CCND IC50 (25-250 nM)): 25 to 250 nM
- IC50 (CDK6/CCND1; x = IC50 25-250 nM, read-out: CDK6/CCND IC50 (25-250 nM)): 25 to 250 nM
SMILES: Cc1c(-c2nccc3cnc(Nc4ccc(S(C)(=O)=O)cc4)cc23)ccc2c1ccn2CCO [Ex 657, 2-(4-methyl-5-(7-((4-(methylsulfonyl)phenyl)amino)-2,6-naphthyridin-1-yl)-1H-indol-1-yl)ethan-1-ol]

- IC50 (CDK2/CCNE1; [5]): 25 to 250 nM
- IC50 (CDK1/CCNB1; [2]): > 250 nM
- IC50 (CDK4/CCND3; [3]): > 250 nM
- IC50 (CDK6/CCND1; [4]): > 250 nM
SMILES: CS(=O)(=O)c1ccc(Nc2cc3c(C#Cc4cc(F)c(N)c(F)c4)nccc3cn2)cc1 [Ex 549, 5-((4-amino-3,5-difluorophenyl)ethynyl)-N-(4-(methylsulfonyl)phenyl)-2,6-naphthyridin-3-amine]

- IC50 (CDK2/CCNE1; [5]): 25 to 250 nM
- IC50 (CDK1/CCNB1; [2]): > 250 nM
- IC50 (CDK4/CCND3; [3]): > 250 nM
- IC50 (CDK6/CCND1; [4]): > 250 nM
SMILES: CS(=O)(=O)c1ccc(Nc2cc3c(C#Cc4ccc(N5CCOCC5)nc4)nccc3cn2)cc1 [Ex 566, N-(4-(methylsulfonyl)phenyl)-5-((6-morpholinopyridin-3-yl)ethynyl)-2,6-naphthyridin-3-amine]

- IC50 (CDK2/CCNE1; [6]): < 25 nM
- IC50 (CDK1/CCNB1; [7]): > 250 nM
- IC50 (CDK4/CCND3; [8]): > 250 nM
- IC50 (CDK6/CCND1; [9]): > 250 nM
SMILES: COc1cnc(NS(=O)(=O)c2ccc(Nc3cc4c(-c5ccc6c(cnn6CC(C)(C)O)c5C)nccc4cn3)cc2)nc1 [Ex 906, 4-((5-(1-(2-hydroxy-2-methylpropyl)-4-methyl-1H-indazol-5-yl)-2,6-naphthyridin-3-yl)amino)-N-(5-methoxypyrimidin-2-yl)benzenesulfonamide]

- IC50 (CDK2/CCNE1; [1]): < 25 nM
- IC50 (CDK1/CCNB1; [10]): 25 to 250 nM
- IC50 (CDK4/CCND3; [3]): > 250 nM
- IC50 (CDK6/CCND1; [4]): > 250 nM
SMILES: CCS(=O)(=O)c1ccc(Nc2cc3c(C#Cc4ccc5c(c4)NC(=O)C54CCC4)nccc3cn2)cc1 [Ex 405, 6'-((7-((4-(ethylsulfonyl)phenyl)amino)-2,6-naphthyridin-1-yl)ethynyl)spiro[cyclobutane-1,3'-indolin]-2'-one]

- IC50 (CDK2/CCNE1; 25-250 nM marked x, read-out: CDK2/CCNE IC50 25-250 nM): 25 to 250 nM
- IC50 (CDK1/CCNB1; [11]): > 250 nM
- IC50 (CDK4/CCND3; [12]): > 250 nM
- IC50 (CDK6/CCND1; [13]): > 250 nM
SMILES: CCC1(CC)C(=O)Nc2cc(C#Cc3nccc4cnc(Nc5ccc(S(C)(=N)=O)cc5OC)cc34)ccc21 (single isomer, unassigned) [Ex 319, 3,3-diethyl-6-((7-((2-methoxy-4-(S-methylsulfonimidoyl)phenyl)amino)-2,6-naphthyridin-1-yl)ethynyl)indolin-2-one]

Second part, the molecule before the results:

SMILES: Cc1ccnc(NS(=O)(=O)c2ccc(Nc3cc4c(-c5ccc6c(cnn6CC(C)(C)O)c5C)nccc4cn3)cc2)c1 [Ex 841, 4-((5-(1-(2-hydroxy-2-methylpropyl)-4-methyl-1H-indazol-5-yl)-2,6-naphthyridin-3-yl)amino)-N-(4-methylpyridin-2-yl)benzenesulfonamide]
- IC50 (CDK2/CCNE1; [6]): < 25 nM
- IC50 (CDK1/CCNB1; [7]): > 250 nM
- IC50 (CDK4/CCND3; 25-250 nM, read-out: CDK4/CCND IC50, 25-250 nM): 25 to 250 nM
- IC50 (CDK6/CCND1; 25-250 nM, 1 mM ATP, read-out: CDK6/CCND IC50, 25-250 nM): 25 to 250 nM

SMILES: Cc1c(-c2nccc3cnc(Nc4ccc(NS(=O)(=O)c5cccc(N6CCOCC6)c5)cc4)cc23)ccc2c1cnn2CC(C)(C)O [Ex 753, N-(4-((5-(1-(2-hydroxy-2-methylpropyl)-4-methyl-1H-indazol-5-yl)-2,6-naphthyridin-3-yl)amino)phenyl)-3-morpholinobenzenesulfonamide]
- IC50 (CDK2/CCNE1; [6]): < 25 nM
- IC50 (CDK1/CCNB1; [7]): > 250 nM
- IC50 (CDK4/CCND3; [8]): > 250 nM
- IC50 (CDK6/CCND1; [9]): > 250 nM

SMILES: CS(=O)(=O)N1CCC(Nc2cc3c(-c4ccc(N)cc4)nccc3cn2)CC1 [Ex 73, 5-(4-aminophenyl)-N-(1-(methylsulfonyl)piperidin-4-yl)-2,6-naphthyridin-3-amine]
- IC50 (CDK2/CCNE1; <25 nM, read-out: CDK2/CCNE IC50 <25 nM): < 25 nM
- IC50 (CDK1/CCNB1; 25-250 nM marked x, read-out: CDK1/CCNB IC50 25-250 nM): 25 to 250 nM
- IC50 (CDK4/CCND3; 25-250 nM marked x, read-out: CDK4/CCND IC50 25-250 nM): 25 to 250 nM
- IC50 (CDK6/CCND1; <25 nM, read-out: CDK6/CCND IC50 <25 nM): < 25 nM

SMILES: CS(=O)(=O)c1ccc(Nc2cc3c(C4CCN(S(=O)(=O)c5cccnc5)C4)nccc3cn2)cc1 (racemic) [Ex 238, N-(4-(methylsulfonyl)phenyl)-5-(1-(pyridin-3-ylsulfonyl)pyrrolidin-3-yl)-2,6-naphthyridin-3-amine]
- IC50 (CDK2/CCNE1; >250 nM marked x, read-out: CDK2/CCNE IC50 >250 nM): > 250 nM
- IC50 (CDK1/CCNB1; [11]): > 250 nM
- IC50 (CDK4/CCND3; [12]): > 250 nM
- IC50 (CDK6/CCND1; [13]): > 250 nM

SMILES: O=c1ccc(C#Cc2nccc3cnc(Nc4cnc(O)c(N5CCN(CCO)CC5)c4)cc23)n[nH]1 [Ex 866, 6-((7-((6-hydroxy-5-(4-(2-hydroxyethyl)piperazin-1-yl)pyridin-3-yl)amino)-2,6-naphthyridin-1-yl)ethynyl)pyridazin-3(2H)-one]
- IC50 (CDK2/CCNE1; [14]): 25 to 250 nM
- IC50 (CDK1/CCNB1; [7]): > 250 nM
- IC50 (CDK4/CCND3; [8]): > 250 nM
- IC50 (CDK6/CCND1; [9]): > 250 nM

SMILES: Cc1c(-c2nccc3cnc(Nc4ccc(NS(=O)(=O)c5cccc6nn(C)cc56)cc4)cc23)ccc2c1cnn2CC(C)(C)O [Ex 820, N-(4-((5-(1-(2-hydroxy-2-methylpropyl)-4-methyl-1H-indazol-5-yl)-2,6-naphthyridin-3-yl)amino)phenyl)-2-methyl-2H-indazole-4-sulfonamide]
- IC50 (CDK2/CCNE1; [14]): 25 to 250 nM
- IC50 (CDK1/CCNB1; [7]): > 250 nM
- IC50 (CDK4/CCND3; [8]): > 250 nM
- IC50 (CDK6/CCND1; [9]): > 250 nM

SMILES: Cc1c(-c2nccc3cnc(Nc4ccc(S(=N)(=O)Nc5ccccc5)cc4)cc23)ccc2c1cnn2CC(O)(C(F)(F)F)C(F)(F)F (single isomer, unassigned) [Ex 685, 4-((5-(4-methyl-1-(3,3,3-trifluoro-2-hydroxy-2-(trifluoromethyl)propyl)-1H-indazol-5-yl)-2,6-naphthyridin-3-yl)amino)-N-phenylbenzenesulfonimidamide]
- IC50 (CDK2/CCNE1; [14]): 25 to 250 nM
- IC50 (CDK1/CCNB1; [7]): > 250 nM
- IC50 (CDK4/CCND3; [8]): > 250 nM
- IC50 (CDK6/CCND1; [9]): > 250 nM

SMILES: Cc1c(-c2nccc3cnc(Nc4ccc(NS(=O)(=O)c5cccc6nsnc56)cc4)cc23)ccc2c1cnn2CC(C)(C)O [Ex 819, N-(4-((5-(1-(2-hydroxy-2-methylpropyl)-4-methyl-1H-indazol-5-yl)-2,6-naphthyridin-3-yl)amino)phenyl)benzo[c][1,2,5]thiadiazole-4-sulfonamide]
- IC50 (CDK2/CCNE1; [14]): 25 to 250 nM
- IC50 (CDK1/CCNB1; [7]): > 250 nM
- IC50 (CDK4/CCND3; [8]): > 250 nM
- IC50 (CDK6/CCND1; [9]): > 250 nM
